# What was measured:
# [1] = Qualitative solubility in water; format: physicochemical
# Procedure: A solution of 254 mg (2 mmol) of 1-methyl-4-nitropyrazole in 15 mL of warm water was mixed with a solution of 415 mg (1 mmol) of K2PtCl4 in 5 mL of water. The reaction mixture was maintained in darkness at 25 °C and monitored periodically by TLC until the absence of free ligand (app. 3 weeks). Then, the yellow precipitate was filtered off and dried, giving 480 mg (92%) of the crude mixture, which mainly consisted of two individual Pt complexes (TLC). […] Combustion and spectral analyses for the cis complex 1: Elemental analysis for formula C8H10N6O4Cl2Pt of compound 1: Calculated/Found (%): C 18.47/18.80, H 1.94/1.89, N 16.16/15.97, Cl 13.63/13.70. ^1H NMR (300.15 MHz, acetone-d6): δ[ppm] […] Combustion and spectral analyses for the trans complex 2: Elemental analysis for formula C8H10N6O4Cl2Pt of the trans-complex 2: Calculated/Found (%): C 18.47/18.76, H 1.94/1.84, N 16.16/15.86, Cl 13.63/13.93. ^1H NMR (300.15 MHz, acetone-d6): δ[ppm] […] Analysis of Mass Spectrum (ESI-MS) of both complexes 1 and 2: The calculated value of the parent peak mass for the formula C8H10N6O4Cl2Pt was 518.9789 u.
# [2] = Reaction with L-glutathione, UV absorbance at 260 nm; format: physicochemical; conditions: 2 mM GSH, pH 7.4, 37 °C
# Text: Platinum compounds have a strong ability to react with sulfur donor ligands. […] These side reactions are considered as playing an important role in mechanisms of tumor resistance to platinum drugs, their inactivation, and toxic side effects. The two most important endogenous thiols to which platinum complexes can bind after intravenous administration or after they enter the cancer cell are reduced L-glutathione (GSH) and metallothionein (MT). In the present work, we investigated reactions of GSH with compounds 1 and 2, measuring the UV absorbance at 260 nm (which indicates the formation of Pt–S and S–S bonds) as a function of time using a double-beam spectrophotometer (Figure 6). […] Despite the better solubility of tested complexes in acetone, dioxane was used in this experiment due to its lack of absorption of UV radiation at 260 nm in contrast to acetone that strongly absorbs at this wavelength preventing a correct measurement of absorbance changes.
# The solutions of compounds 1 or 2 in dioxane (30 µL) at 60 mM concentration were added to 3 mL of 2 mM solution of GSH (reduced L-glutathione) previously saturated with argon in the medium containing 10 mmol/L NaCl and 10 mmol/L Tris xHCl buffer, pH 7.4, warmed to 37 °C, reaching a final concentration of […] of the platinum complex. The reaction progress during incubation at 37 °C was monitored using UV absorption spectrometry at 260 nm. […]
# MCF-7 cells = experiment: Total cellular platinum uptake (ICP OES); format: cell-based, human; conditions: MCF-7, 4 h exposure, 10 µM
# Procedure: It is necessary to strongly emphasize that the underlined values have a statistically significant lack of variance homogeneity (Fisher–Snedecor’s F-test, Fα/2) with respect to reference drug variance, so Aspin–Welch’s t-test was applied in these cases. […] For ionic compound 8, platinum uptake value was not determined due to Pt concentrations in the cell lysates being below the instrument detection limit (IDL = 10 μg/kg) specified by the manufacturer for the device used.
# Cultured MCF-7 cells were seeded at a density of 4 × 10^5 cells/well of culture medium on a 6-well plate (Corning, NY, USA) to a final volume of 2.5 mL. […] The wells without MCF-7 cells were filled with 1 mL of culture medium-containing compound tested to act as a reference for nonspecific platinum complex adsorption on the surface of the well. After incubation, all wells were washed twice with 2 mL of cold PBS, filled with 400 μL of hot (ca 90 °C) 65% nitric acid, and maintained to stand for 2 h. All wells were finally filled with 1600 μL of water and this solution was collected and analyzed using iCAP 7400 Duo ICP OES instrument (Thermo Fisher Scientific) using the plasma axial view (10 s) at λ = 265.945 nm. The amount of Pt per cell was calculated by subtracting the amount of Pt found in the blank well from the amount of Pt found in the cell-containing wells and normalized to the average number of cells per well. The mean and SD values were calculated on the basis of 4 measurements.
SMILES,solubility in water [1],half-time of the reaction with GSH [2],Total Cellular Platinum Uptake in MCF-7 Cells (± SD) (MCF-7 cells)
"Cn1cc([N+](=O)[O-])c[n+]1[Pt@SP2-2]([Cl])([Cl])[n+]1cc([N+](=O)[O-])cn1C [Compound 1, cis-dichloridobis(1-methyl-4-nitropyrazole)platinum(II)]",poorly in water,83 min,27 ± 6 ng Pt/10^6 Cells
"Cn1c([N+](=O)[O-])cc[n+]1[Pt@SP3-2]([Cl])([Cl])[n+]1ccc([N+](=O)[O-])n1C [Compound 4, trans-dichloridobis(1-methyl-5-nitropyrazole)platinum(II)]",–,–,83 ± 12 ng Pt/10^6 Cells
"Cn1c([N+](=O)[O-])cc[n+]1[Pt@SP2-2]([Cl])([Cl])[n+]1ccc([N+](=O)[O-])n1C [Compound 3, cis-dichloridobis(1-methyl-5-nitropyrazole)platinum(II)]",–,–,82 ± 11 ng Pt/10^6 Cells
"Cn1cc([N+](=O)[O-])c[n+]1[Pt@SP3-2]([Cl])([Cl])[n+]1cc([N+](=O)[O-])cn1C [Compound 2, trans-dichloridobis(1-methyl-4-nitropyrazole)platinum(II)]",very poorly in water,13 min,32 ± 6 ng Pt/10^6 Cells
